Assay results reported in US6608086B2, “Dihydropyridines and new uses thereof” (Synaptic Pharmaceutical Corporation, priority 1993, dated 2003).
Read-outs that look alike come from different tables or passages of the source.

Key:
[1] = target: T1, α1A Human Adrenergic Receptor (Homo sapiens, UniProt P25100); assay: Radioligand binding, [3H]prazosin, cloned human α1A adrenergic receptor
T1 construct: The entire coding region of α1A (1719 bp); expressed in transfected cells
T1 sequence (P25100 1-572): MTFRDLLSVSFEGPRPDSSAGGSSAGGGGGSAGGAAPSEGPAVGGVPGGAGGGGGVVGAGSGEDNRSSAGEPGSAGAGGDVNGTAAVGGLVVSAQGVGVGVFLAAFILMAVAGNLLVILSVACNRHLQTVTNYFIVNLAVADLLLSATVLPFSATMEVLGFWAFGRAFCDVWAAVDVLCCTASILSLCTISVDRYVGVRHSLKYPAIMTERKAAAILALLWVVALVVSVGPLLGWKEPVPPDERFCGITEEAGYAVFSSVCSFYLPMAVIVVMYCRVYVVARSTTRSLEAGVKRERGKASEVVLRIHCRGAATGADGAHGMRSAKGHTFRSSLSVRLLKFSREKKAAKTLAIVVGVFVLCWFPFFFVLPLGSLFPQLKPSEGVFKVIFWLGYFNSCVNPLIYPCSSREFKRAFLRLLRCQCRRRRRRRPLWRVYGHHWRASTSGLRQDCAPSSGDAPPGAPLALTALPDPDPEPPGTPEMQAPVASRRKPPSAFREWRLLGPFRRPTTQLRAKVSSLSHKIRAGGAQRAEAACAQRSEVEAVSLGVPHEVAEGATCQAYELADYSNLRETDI
Procedure, shortened: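 In pH 7.5 Tris/MgCl2/ascorbic acid buffer, α1A-expressing LM(tk−) membranes are exposed to 0.5 nM [3H]prazosin (37° C, 20 min). Excess phentolamine (10 μM) marks nonspecific binding before rapid filtration.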

α2A receptor = target: T2, α2A receptor (Homo sapiens, UniProt P08913); assay: Competition binding, [3H]rauwolscine, human α2A receptor; conditions: [3H]rauwolscine, human receptor, LM(tk-) cell lysates; mean; read-out: PKi alpha-2 2a (converted)
T2 construct: host or cells: LM(tk-) cells, line L-α2A
T2 sequence (P08913 1-465): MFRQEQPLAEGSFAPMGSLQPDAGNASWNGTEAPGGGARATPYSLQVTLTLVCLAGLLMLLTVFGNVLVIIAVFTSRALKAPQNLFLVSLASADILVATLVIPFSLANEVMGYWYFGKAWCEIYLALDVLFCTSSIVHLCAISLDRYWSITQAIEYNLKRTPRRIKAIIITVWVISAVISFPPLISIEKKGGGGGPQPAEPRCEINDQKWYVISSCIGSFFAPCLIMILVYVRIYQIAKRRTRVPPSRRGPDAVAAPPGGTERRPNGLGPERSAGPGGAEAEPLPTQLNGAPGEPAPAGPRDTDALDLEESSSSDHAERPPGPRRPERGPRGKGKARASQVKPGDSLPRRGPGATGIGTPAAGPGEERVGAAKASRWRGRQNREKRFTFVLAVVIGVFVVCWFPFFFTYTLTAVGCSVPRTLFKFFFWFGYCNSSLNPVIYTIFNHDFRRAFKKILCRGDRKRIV
Description: (§1) The protocols for these experiments are given below.
(§2) α2 Human Adrenergic Receptors:
(§3) To determine the potency of […], antagonists at the α2 receptors, LM(tk−) cell lines stably transfected with the genes encoding the α2A, α2B, and α2C receptors were used. The cell line expressing the α2A receptor is designated L-α2A, and was deposited on Nov. […] The cell line expressing the α2B receptor is designated L-NGC-α2B, and was deposited on Oct. […] The cell line expressing the α2C receptor is designated L-α2C, and was deposited on Nov. […] Cell lysates were prepared as described above (see Radioligand Binding Assays), and suspended in 25 mM glycylglycine buffer (pH 7.6 at room temperature). Equilibrium competition binding assay were performed using [3H]rauwolscine (0.5 nM), and nonspecific binding was determined by incubation with 10 μM phentolamine. The bound radioligand was separated by filtration through GF/B filters using a cell harvester.

α2B receptor = target: T3, α2B receptor (Homo sapiens, UniProt P18089); assay: Competition binding, [3H]rauwolscine, human α2B receptor; conditions: [3H]rauwolscine, human receptor, LM(tk-) cell lysates; mean; read-out: PKi alpha-2 2b (converted)
T3 construct: host or cells: LM(tk-) cells, line L-NGC-α2B
T3 sequence (P18089 1-450): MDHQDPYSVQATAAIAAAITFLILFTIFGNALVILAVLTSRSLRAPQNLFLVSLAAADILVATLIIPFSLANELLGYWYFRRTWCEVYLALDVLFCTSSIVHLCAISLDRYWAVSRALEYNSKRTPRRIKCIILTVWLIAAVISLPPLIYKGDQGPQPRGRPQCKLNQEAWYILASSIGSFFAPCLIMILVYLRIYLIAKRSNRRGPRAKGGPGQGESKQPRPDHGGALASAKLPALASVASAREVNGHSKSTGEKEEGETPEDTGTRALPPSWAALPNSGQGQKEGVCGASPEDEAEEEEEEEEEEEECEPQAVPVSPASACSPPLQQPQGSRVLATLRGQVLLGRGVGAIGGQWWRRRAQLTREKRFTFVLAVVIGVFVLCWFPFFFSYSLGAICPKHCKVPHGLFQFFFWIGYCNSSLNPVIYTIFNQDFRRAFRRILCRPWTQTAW
Description: as §1, §2, §3

α2C receptor = target: T4, α2C receptor (Homo sapiens, UniProt P18825); assay: Competition binding, [3H]rauwolscine, human α2C receptor; conditions: [3H]rauwolscine, human receptor, LM(tk-) cell lysates; mean; read-out: PKi alpha-2 2c (converted)
T4 construct: host or cells: LM(tk-) cells, line L-α2C
T4 sequence (P18825 1-462): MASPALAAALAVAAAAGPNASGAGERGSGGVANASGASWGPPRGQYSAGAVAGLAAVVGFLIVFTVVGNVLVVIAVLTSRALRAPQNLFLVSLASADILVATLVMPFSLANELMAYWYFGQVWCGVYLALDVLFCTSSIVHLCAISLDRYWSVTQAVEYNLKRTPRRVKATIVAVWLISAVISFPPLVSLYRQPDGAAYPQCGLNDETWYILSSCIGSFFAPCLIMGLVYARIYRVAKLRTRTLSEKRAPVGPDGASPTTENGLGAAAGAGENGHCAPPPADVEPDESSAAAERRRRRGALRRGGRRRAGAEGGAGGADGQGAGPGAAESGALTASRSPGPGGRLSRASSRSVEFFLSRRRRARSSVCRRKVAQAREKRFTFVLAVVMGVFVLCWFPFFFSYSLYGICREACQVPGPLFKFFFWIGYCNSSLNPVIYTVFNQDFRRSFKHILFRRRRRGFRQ
Description: as §1, §2, §3

L-type calcium channel = target: T5, L-type calcium channel (Rattus norvegicus, UniProt P22002); assay: Competition binding of [3H]nitrendipine to membrane fragments of rat cardiac muscle
T5 construct: membrane fragments of rat cardiac muscle; from tissue; host or cells: rat cardiac muscle membranes
T5 sequence (P22002 whole entry, other chains not shown, the tested form may be a part): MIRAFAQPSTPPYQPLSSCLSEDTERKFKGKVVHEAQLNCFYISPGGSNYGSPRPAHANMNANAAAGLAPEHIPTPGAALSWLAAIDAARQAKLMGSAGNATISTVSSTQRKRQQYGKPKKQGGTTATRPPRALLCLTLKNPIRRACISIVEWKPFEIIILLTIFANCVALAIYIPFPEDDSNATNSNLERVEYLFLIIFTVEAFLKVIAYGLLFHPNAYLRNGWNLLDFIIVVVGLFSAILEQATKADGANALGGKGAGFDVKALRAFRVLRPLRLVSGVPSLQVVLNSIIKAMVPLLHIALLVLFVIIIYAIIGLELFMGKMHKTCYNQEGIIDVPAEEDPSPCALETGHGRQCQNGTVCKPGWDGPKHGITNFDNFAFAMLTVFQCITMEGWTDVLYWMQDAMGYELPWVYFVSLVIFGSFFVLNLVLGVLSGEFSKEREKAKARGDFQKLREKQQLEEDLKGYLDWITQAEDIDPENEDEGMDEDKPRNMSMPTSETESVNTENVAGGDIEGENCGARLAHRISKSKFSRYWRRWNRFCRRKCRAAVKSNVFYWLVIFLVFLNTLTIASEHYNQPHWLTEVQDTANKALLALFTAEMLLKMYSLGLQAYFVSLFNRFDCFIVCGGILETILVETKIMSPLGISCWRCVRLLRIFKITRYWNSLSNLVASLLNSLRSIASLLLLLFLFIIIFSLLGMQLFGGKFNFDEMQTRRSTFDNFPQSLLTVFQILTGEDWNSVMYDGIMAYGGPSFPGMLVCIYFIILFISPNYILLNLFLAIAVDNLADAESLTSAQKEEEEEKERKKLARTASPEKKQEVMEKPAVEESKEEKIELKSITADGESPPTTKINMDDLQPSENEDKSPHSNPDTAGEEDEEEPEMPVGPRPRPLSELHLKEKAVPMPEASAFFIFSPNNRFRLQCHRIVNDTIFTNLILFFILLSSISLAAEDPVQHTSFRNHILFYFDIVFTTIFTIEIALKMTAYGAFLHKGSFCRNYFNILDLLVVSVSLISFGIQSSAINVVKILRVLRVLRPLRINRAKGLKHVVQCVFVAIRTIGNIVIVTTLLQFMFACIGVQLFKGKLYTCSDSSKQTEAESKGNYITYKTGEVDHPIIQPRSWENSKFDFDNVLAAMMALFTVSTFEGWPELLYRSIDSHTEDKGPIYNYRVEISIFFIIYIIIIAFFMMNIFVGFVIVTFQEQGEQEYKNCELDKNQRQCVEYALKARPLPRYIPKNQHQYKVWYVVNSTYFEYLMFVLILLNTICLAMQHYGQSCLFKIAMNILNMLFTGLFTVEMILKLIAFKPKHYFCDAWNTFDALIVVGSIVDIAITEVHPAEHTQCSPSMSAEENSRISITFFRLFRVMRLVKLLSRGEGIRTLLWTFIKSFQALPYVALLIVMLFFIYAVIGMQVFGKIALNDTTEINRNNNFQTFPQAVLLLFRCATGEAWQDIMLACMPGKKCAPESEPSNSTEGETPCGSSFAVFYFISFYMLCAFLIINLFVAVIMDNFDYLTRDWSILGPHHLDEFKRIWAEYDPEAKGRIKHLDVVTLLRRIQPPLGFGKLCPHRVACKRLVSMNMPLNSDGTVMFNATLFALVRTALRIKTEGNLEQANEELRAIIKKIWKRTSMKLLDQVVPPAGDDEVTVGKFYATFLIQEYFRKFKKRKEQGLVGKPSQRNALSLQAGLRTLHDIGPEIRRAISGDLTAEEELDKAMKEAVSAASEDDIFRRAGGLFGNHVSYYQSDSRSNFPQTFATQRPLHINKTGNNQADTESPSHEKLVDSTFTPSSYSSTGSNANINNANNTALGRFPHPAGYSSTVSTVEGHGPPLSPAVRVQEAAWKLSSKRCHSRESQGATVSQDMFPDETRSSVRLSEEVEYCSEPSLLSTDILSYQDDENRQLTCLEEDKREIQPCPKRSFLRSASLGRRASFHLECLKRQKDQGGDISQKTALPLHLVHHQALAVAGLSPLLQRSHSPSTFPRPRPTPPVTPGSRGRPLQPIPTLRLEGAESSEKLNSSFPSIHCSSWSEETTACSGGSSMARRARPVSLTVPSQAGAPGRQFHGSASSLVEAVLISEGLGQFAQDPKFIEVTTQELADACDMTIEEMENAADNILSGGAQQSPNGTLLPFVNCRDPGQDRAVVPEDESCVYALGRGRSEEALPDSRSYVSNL
T5 sequence (P54290 25-944 partner limits assumed, other chains not shown): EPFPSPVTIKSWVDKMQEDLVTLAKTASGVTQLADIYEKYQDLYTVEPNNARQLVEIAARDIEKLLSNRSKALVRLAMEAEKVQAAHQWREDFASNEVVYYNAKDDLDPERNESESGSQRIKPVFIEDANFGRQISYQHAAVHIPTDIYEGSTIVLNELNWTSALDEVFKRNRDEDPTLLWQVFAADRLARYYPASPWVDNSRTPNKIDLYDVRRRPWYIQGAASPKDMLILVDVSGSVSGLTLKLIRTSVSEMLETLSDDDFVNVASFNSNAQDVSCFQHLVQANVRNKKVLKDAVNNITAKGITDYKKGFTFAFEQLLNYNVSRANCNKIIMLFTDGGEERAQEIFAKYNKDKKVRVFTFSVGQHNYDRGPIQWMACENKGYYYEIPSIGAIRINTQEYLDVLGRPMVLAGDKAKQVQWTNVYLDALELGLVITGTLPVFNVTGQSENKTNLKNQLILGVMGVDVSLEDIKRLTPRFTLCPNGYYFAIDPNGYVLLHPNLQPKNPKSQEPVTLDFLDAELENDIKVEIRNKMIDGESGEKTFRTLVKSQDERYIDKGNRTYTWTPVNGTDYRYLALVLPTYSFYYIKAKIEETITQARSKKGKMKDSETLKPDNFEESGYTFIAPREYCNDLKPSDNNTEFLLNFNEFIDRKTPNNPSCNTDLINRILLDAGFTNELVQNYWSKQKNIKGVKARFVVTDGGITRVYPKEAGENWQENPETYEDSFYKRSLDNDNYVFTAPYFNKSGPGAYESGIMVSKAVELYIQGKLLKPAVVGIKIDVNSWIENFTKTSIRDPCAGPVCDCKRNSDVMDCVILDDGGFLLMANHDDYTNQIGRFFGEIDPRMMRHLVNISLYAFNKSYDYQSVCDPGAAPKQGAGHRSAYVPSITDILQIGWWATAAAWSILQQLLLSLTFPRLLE
T5 sequence (P54290 945-1091 partner limits assumed, other chains not shown): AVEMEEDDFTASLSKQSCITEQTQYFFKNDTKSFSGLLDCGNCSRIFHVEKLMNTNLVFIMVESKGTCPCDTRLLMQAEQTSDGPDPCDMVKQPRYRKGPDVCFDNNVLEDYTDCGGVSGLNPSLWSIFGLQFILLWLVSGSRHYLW
Experimental: as §1
Determination of the Activity of al Antagonists at Calcium Channels
Briefly, the tissue was minced and homogenized in 50 mM Tris-HCl (pH 7.4) containing 0.1 mM phenylmethylsulfonyl fluoride. The homogenates were centrifuged at 1000 g for 15 minutes, the resulting supernatant was centrifuged at 45,000 g for 15 minutes. The 45,000 g pellet was suspended in buffer and centrifuged a second time. Aliquots of membrane protein were incubated for 30 minutes at 37° C. in the presence of [3H]nitrendipine (1 nM), and nonspecific binding was determined in the presence of 10 μM nifedipine. The bound radioligand was separated by filtration through GF/B filters using a cell harvester.

[2] = target: T6, α1B Human Adrenergic Receptor (Homo sapiens, UniProt P35368); assay: Radioligand binding, [3H]prazosin, cloned human α1B adrenergic receptor; conditions: cloned human receptor, LM(tk-) cell membranes, mean, read-out: PKi alpha-1 1b (converted)
T6 construct: The entire coding region of α1B (1563 bp); expressed in transfected cells
T6 sequence (P35368 1-520): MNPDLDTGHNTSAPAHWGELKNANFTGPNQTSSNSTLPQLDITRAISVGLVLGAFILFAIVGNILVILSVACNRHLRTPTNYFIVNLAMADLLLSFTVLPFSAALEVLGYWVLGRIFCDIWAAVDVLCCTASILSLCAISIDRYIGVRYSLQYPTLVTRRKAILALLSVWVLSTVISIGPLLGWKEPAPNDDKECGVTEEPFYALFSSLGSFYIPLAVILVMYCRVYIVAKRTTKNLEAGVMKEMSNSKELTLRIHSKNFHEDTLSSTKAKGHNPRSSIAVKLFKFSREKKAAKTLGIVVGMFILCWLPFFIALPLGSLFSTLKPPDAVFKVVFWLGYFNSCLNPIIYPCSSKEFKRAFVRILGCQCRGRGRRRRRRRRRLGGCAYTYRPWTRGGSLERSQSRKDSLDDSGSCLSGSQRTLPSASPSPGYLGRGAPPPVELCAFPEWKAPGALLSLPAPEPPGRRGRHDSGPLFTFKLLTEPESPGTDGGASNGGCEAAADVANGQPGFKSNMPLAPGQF
Procedure, shortened: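 [3H]prazosin (0.5 nM) binding was run for 20 min at 37° C in pH 7.5 Tris/MgCl2/ascorbate buffer on membranes of LM(tk−) cells stably expressing the cloned receptor. Filtration through GF/B ended the reaction; 10 μM phentolamine gave nonspecific binding.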

[3] = target: T7, α1C Human Adrenergic Receptor (Homo sapiens, UniProt P35348); assay: Radioligand binding, [3H]prazosin, cloned human α1C adrenergic receptor; conditions: cloned human receptor, LM(tk-) cell membranes, mean, read-out: PKi alpha-1 1c (converted)
T7 construct: The entire coding region of α1C (1401 bp); expressed in transfected cells
T7 sequence (P35348 1-466): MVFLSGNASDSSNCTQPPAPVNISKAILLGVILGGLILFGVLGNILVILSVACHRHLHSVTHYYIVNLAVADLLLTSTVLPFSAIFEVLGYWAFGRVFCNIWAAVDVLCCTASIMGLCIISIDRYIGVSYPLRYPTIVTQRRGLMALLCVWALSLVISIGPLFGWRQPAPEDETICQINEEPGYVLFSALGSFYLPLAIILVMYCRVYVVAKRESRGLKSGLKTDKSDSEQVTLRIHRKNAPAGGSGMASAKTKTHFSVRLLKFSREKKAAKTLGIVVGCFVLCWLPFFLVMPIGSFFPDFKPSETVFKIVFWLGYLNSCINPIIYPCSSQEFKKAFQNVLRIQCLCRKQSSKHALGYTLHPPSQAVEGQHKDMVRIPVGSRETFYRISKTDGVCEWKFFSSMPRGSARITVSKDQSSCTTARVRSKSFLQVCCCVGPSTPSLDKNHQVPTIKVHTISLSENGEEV
Procedure, shortened: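 Antagonist radioligand [3H]prazosin at 0.5 nM labels human α1C receptors in stably transfected LM(tk−) cell membranes over 20 min at 37° C. Phentolamine (10 μM) gives nonspecific binding.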

[4] = [3H]prazosin, cloned human receptor, LM(tk-) cell membranes, mean, read-out: PKi alpha-1 1a (converted)

Compound	Ki [1, 4] [nM]	Ki (α2A receptor) [nM]	Ki (α2B receptor) [nM]	Ki (α2C receptor) [nM]	melting point [°C]	Ki [2] [nM]	Ki [3] [nM]	other results
CCOC(=O)C1=C(C)NC(C)=C(C(=O)NCCCN2CCC(C(=O)OC)(c3ccccc3)CC2)C1c1ccc([N+](=O)[O-])cc1 (centres unmarked) [Example 208]	741	2690	1260	977	73 to 75			
CCC1=C(C(N)=O)C(c2ccc([N+](=O)[O-])cc2)C(C(=O)NCCCN2CCC(c3ccccc3)(c3ccccc3)CC2)=C(COCCN)N1 (racemic) [(±)-144, 2-((2-Aminoethyl)oxy)methyl-5-carboxamido-6-ethyl-1,4-dihydro-4-(4-nitro)phenyl-3-(N-(3-(4,4-diphenylpiperidin-1-yl)propyl))carboxamidopyridine]								Ki (L-type calcium channel; [3H]nitrendipine, rat cardiac muscle membrane fragments, L-type calcium channel, read-out: pKi Ca (converted)): 12600 nM
CC1=C(C(N)=O)C(c2ccc([N+](=O)[O-])cc2)C(C(=O)NCCCN2CCC(c3ccccc3)(c3ccccc3)CC2)=C(COCCN)N1 (centres unmarked) [Example 217, 2-((2-Aminoethyl)oxy)methyl-5-carboxamido-1,4-dihydro-6-methyl-3-(N-(3-(4,4-diphenylpiperidin-1-yl)propyl))carboxamido-4-(4-nitro)phenylpyridine]						447	2.45	Ki ([1]; PKi alpha-1 1a): 776 nM; Ki (L-type calcium channel; PKi Ca): 8130 nM
COC(=O)C1(c2ccccc2)CCN(CCCNC(=O)C2=C(C)NC(C)=C(C(=O)OCCO)C2c2ccc([N+](=O)[O-])cc2)CC1 (centres unmarked) [Example 207, 1,4-Dihydro-2,6-dimethyl-5-(2-hydroxyethoxycarbonyl)-3-{N-[3-(4-methoxycarbonyl-4-phenylpiperidin-1-yl)propyl]}carboxamido-4-(4-nitrophenyl)pyridine]	1860	724	955	1780	90 to 91			
CCC1=C(C(=O)O)C(c2ccc([N+](=O)[O-])cc2)C(C(=O)NCCCN2CCC(c3ccccc3)CC2)=C(COC)N1 (centres unmarked) [Example 223, 6-Ethyl-1,4-dihydro-2-methyloxymethyl-4-(4-nitro)phenyl-3-(N-(3-(4-phenylpiperidin-1-yl)propyl))carboxamidopyridine-5-carboxylic Acid]	891					174	34.7	Ki (L-type calcium channel; [3H]nitrendipine, rat cardiac muscle membranes, mean, read-out: PKi Ca (converted)): 275000 nM
COC(=O)C1(c2ccccc2)CCN(CCCNC(=O)C2=C(C)NC(C)=C(C(=O)O)C2c2ccc([N+](=O)[O-])cc2)CC1 (centres unmarked) [Example 204, 1,4-Dihydro-2,6-dimethyl-3-{N-[3-(4-methoxycarbonyl-4-phenylpiperidin-1-yl)propyl]}carboxamido-4-(4-nitrophenyl)pyridine-5-carboxylic acid]		1170	1700	1230	139 to 141			
